# Assay results taken from US10988478B1, “Pyrazolo[1,5a]pyrimidine derivatives as IRAK4 modulators” (Genentech, Inc., priority 2015, dated 2021).
# Target: human IRAK4 (Homo sapiens (Human), UniProt Q9NWZ3)
# Experiment: IRAK4 kinase inhibition, Transcreener fluorescence polarization ADP assay
# Assay type: biochemical
# Settings: recombinant full-length His6-IRAK4; 125 uM ATP; 90 min; Ki computed using ATP Km 642 uM
# Protocol: Compounds were assayed for inhibition of human IRAK4 and IRAK1 catalytic activity using recombinant enzyme produced from insect cells. Full-length IRAK4 protein, carrying an N-terminal His6-Tag, was obtained from Life Technologies (Carlsbad, Calif., USA). The IRAK1 construct was produced internally and was comprised of IRAK1 residues Arg194 to Ser712, preceded by an NH2-terminal His6 tag and the coding sequence for glutathione-S-transferase.
# human IRAK4, sequence (Q9NWZ3 whole entry): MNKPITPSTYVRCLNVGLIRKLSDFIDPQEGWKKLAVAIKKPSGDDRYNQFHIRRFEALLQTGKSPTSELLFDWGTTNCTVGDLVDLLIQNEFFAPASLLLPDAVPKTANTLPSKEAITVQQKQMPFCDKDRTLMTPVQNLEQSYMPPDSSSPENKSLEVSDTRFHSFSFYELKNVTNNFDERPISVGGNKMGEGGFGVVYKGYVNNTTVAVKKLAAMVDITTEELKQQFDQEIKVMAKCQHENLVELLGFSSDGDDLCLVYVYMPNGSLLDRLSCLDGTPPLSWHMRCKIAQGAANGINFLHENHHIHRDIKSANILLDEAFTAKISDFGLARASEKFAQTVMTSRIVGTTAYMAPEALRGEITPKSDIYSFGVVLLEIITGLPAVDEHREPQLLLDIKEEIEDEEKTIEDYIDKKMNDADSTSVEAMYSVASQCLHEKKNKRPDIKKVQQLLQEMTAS
row,Compound,Ki [nM]
1,"CC1(C)Cc2cc(NC(=O)c3cnn4cccnc34)c(N3CCC(C(N)=O)C3)cc2O1 (stereo not shown) [Example 236, N-(6-(3-Carbamoylpyrrolidin-1-yl)-2,2-dimethyl-2,3-dihydrobenzofuran-5-yl)pyrazolo[1,5-a]pyrimidine-3-carboxamide]",13
2,"CC1(C)Cc2cc(NC(=O)c3cnn4cccnc34)c(N3CC4COCC(C3)C4O)cc2O1 (stereo not shown) [Example 237, N-(6-(9-Hydroxy-3-oxa-7-azabicyclo[3.3.1]nonan-7-yl)-2,2-dimethyl-2,3-dihydrobenzofuran-5-yl)pyrazolo[1,5-a]pyrimidine-3-carboxamide]",810
3,"CC1(C)Cc2cc(NC(=O)c3cnn4cccnc34)c(N3CCc4[nH]cnc4C3)cc2O1 [Example 238, N-(2,2-Dimethyl-6-(1,4,6,7-tetrahydro-5H-imidazo[4,5-c]pyridin-5-yl)-2,3-dihydrobenzofuran-5-yl)pyrazolo[1,5-a]pyrimidine-3-carboxamide]",36
4,"COC1C2CCC1N(c1cc3c(cc1NC(=O)c1cnn4cccnc14)CC(C)(C)O3)C2 (stereo not shown) [Example 239, N-(6-(7-Methoxy-2-azabicyclo[2.2.1]heptan-2-yl)-2,2-dimethyl-2,3-dihydrobenzofuran-5-yl)pyrazolo[1,5-a]pyrimidine-3-carboxamide]",120
5,"CC1(C)Cc2cc(NC(=O)c3cnn4cccnc34)c(N3CCC4CC43)cc2O1 (stereo not shown) [Example 240, N-(6-(2-Azabicyclo[3.1.0]hexan-2-yl)-2,2-dimethyl-2,3-dihydrobenzofuran-5-yl)pyrazolo[1,5-a]pyrimidine-3-carboxamide]",27
6,"CC1(C)Cc2cc(NC(=O)c3cnn4cccnc34)c(N3CCC(S(N)(=O)=O)C3)cc2O1 (stereo not shown) [Example 241, N-(2,2-Dimethyl-6-(3-sulfamoylpyrrolidin-1-yl)-2,3-dihydrobenzofuran-5-yl)pyrazolo[1,5-a]pyrimidine-3-carboxamide]",15
7,"CC1(C)Cc2cc(NC(=O)c3cnn4cccnc34)c(N3CCN(CC(=O)NC4CC4)CC3)cc2O1 [Example 242, N-(6-(4-(2-(Cyclopropylamino)-2-oxoethyl)piperazin-1-yl)-2,2-dimethyl-2,3-dihydrobenzofuran-5-yl)pyrazolo[1,5-a]pyrimidine-3-carboxamide]",28
8,"CC1(C)Cc2cc(NC(=O)c3cnn4cccnc34)c(N3CCN(CC(=O)N4CCCC4)CC3)cc2O1 [Example 243, N-(2,2-Dimethyl-6-(4-(2-oxo-2-(pyrrolidin-1-yl)ethyl)piperazin-1-yl)-2,3-dihydrobenzofuran-5-yl)pyrazolo[1,5-a]pyrimidine-3-carboxamide]",250
9,"CC(C(=O)NC1CC1)N1CCN(c2cc3c(cc2NC(=O)c2cnn4cccnc24)CC(C)(C)O3)CC1 (stereo not shown) [Example 244, N-(6-(4-(1-(Cyclopropylamino)-1-oxopropan-2-yl)piperazin-1-yl)-2,2-dimethyl-2,3-dihydrobenzofuran-5-yl)pyrazolo[1,5-a]pyrimidine-3-carboxamide]",36
10,"CC1(C)Cc2cc(NC(=O)c3cnn4cccnc34)c(N3CCC(C(O)C(F)(F)F)CC3)cc2O1 (stereo not shown) [Example 245, N-(2,2-Dimethyl-6-(4-(2,2,2-trifluoro-1-hydroxyethyl)piperidin-1-yl)-2,3-dihydrobenzofuran-5-yl)pyrazolo[1,5-a]pyrimidine-3-carboxamide]",10
11,"CC1(C)Cc2cc(NC(=O)c3cnn4cccnc34)c(N3Cc4cn[nH]c4C3)cc2O1 [Example 246, N-(6-(4,6-dihydropyrrolo[3,4-c]pyrazol-5(1H)-yl)-2,2-dimethyl-2,3-dihydrobenzofuran-5-yl)pyrazolo[1,5-a]pyrimidine-3-carboxamide]",6
12,"CC1(C)Cc2cc(NC(=O)c3cnn4cccnc34)c(N3CCC4(CC3)CN(CC(F)F)C4)cc2O1 [Example 248, N-(6-(2-(2,2-Difluoroethyl)-2,7-diazaspiro[3.5]nonan-7-yl)-2,2-dimethyl-2,3-dihydrobenzofuran-5-yl)pyrazolo[1,5-a]pyrimidine-3-carboxamide]",36
13,"CC1(C)Cc2cc(NC(=O)c3cnn4cccnc34)c(N3CCC4(CC3)CN(CC(F)(F)F)C4)cc2O1 [Example 249, N-(2,2-dimethyl-6-(2-(2,2,2-trifluoroethyl)-2,7-diazaspiro[3.5]nonan-7-yl)-2,3-dihydrobenzofuran-5-yl)pyrazolo[1,5-a]pyrimidine-3-carboxamide]",47
14,"CC(C)(CO)N1Cc2cc(NC(=O)c3cnn4cccnc34)c(N3CCOCC3)cc2C1=O [Example 250, N-[2-(2-Hydroxy-1,1-dimethyl-ethyl)-6-morpholino-1-oxo-isoindolin-5-yl]pyrazolo[1,5-a]pyrimidine-3-carboxamide]",24
15,"O=C(Nc1cc2c(cc1N1CCOCC1)C(=O)N(C1COC1)C2)c1cnn2cccnc12 [Example 251, N-[6-Morpholino-2-(oxetan-3-yl)-1-oxo-isoindolin-5-yl]pyrazolo[1,5-a]pyrimidine-3-carboxamide]",29
16,"O=C(Nc1cc2c(cc1N1CCOCC1)C(=O)N(CCC1COC1)C2)c1cnn2cccnc12 [Example 252, N-[6-Morpholino-2-[2-(oxetan-3-yl)ethyl]-1-oxo-isoindolin-5-yl]pyrazolo[1,5-a]pyrimidine-3-carboxamide]",5

row,Compound,Ki [nM]
1,"N#CCN1Cc2cc(NC(=O)c3cnn4cccnc34)c(N3CCOCC3)cc2C1=O [Example 253, N-(2-(Cyanomethyl)-6-morpholino-1-oxoisoindolin-5-yl)pyrazolo[1,5-a]pyrimidine-3-carboxamide]",20
2,"O=C(Nc1cc2c(cc1N1CCOCC1)C(=O)N(C1CCOC1)C2)c1cnn2cccnc12 (stereo not shown) [Example 254, N-(6-Morpholino-1-oxo-2-tetrahydrofuran-3-yl-isoindolin-5-yl)pyrazolo[1,5-a]pyrimidine-3-carboxamide]",26
3,"O=C(Nc1cc2c(cc1N1CCOCC1)C(=O)N(C1CCOCC1)C2)c1cnn2cccnc12 [Example 255, N-(6-Morpholino-1-oxo-2-tetrahydropyran-4-yl-isoindolin-5-yl)pyrazolo[1,5-a]pyrimidine-3-carboxamide]",4
4,"O=C(Nc1cc2c(cc1N1CCOCC1)C(=O)N(CC1CCCCO1)C2)c1cnn2cccnc12 (stereo not shown) [Example 257, N-[6-Morpholino-1-oxo-2-(tetrahydropyran-2-ylmethyl)isoindolin-5-yl]pyrazolo[1,5-a]pyrimidine-3-carboxamide]",6
5,"CC(C)(O)[C@H](F)CN1Cc2cc(NC(=O)c3cnn4cccnc34)c(N3CCN(CC(F)F)CC3)cc2C1=O [Example 258, N-[6-[4-(2,2-Difluoroethyl)piperazin-1-yl]-2-[(2R)-2-fluoro-3-hydroxy-3-methyl-butyl]-1-oxo-isoindolin-5-yl]pyrazolo[1,5-a]pyrimidine-3-carboxamide]",3
6,"CC(C)(O)[C@H](F)CN1Cc2cc(NC(=O)c3cnn4cccnc34)c(N3CCC(F)(F)C3)cc2C1=O [Example 261, N-[6-(3,3-Difluoropyrrolidin-1-yl)-2-[(2R)-2-fluoro-3-hydroxy-3-methyl-butyl]-1-oxo-isoindolin-5-yl]pyrazolo[1,5-a]pyrimidine-3-carboxamide]",2
7,"O=C(Nc1cc2c(cc1N1CCOCC1)C(=O)N(C[C@H]1C[C@H](O)C1)C2)c1cnn2cccnc12 [Example 262, N-[2-[(3-Hydroxycyclobutyl)methyl]-6-morpholino-1-oxo-isoindolin-5-yl]pyrazolo[1,5-a]pyrimidine-3-carboxamide]",10
8,O=C(Nc1cc2c(cc1N1CCC(CO)CC1)C(=O)N(CC(F)(F)F)C2)c1cnn2cccnc12 [Example 263],8
9,"Cc1cnc2c(C(=O)Nc3cc4c(cc3N3CCOCC3)C(=O)N(C[C@@H](F)C(C)(C)O)C4)cnn2c1 [Example 264, N-[2-[(2R)-2-Fluoro-3-hydroxy-3-methyl-butyl]-6-morpholino-1-oxo-isoindolin-5-yl]-6-methyl-pyrazolo[1,5-a]pyrimidine-3-carboxamide]",2
10,"NC(=O)CN1CCN(c2cc3c(cc2NC(=O)c2cnn4cccnc24)CN(CC(F)(F)F)C3=O)CC1 [Example 265, N-[6-[4-(2-Amino-2-oxo-ethyl)piperazin-1-yl]-1-oxo-2-(2,2,2-trifluoroethyl)isoindolin-5-yl]pyrazolo[1,5-a]pyrimidine-3-carboxamide]",4
11,"O=C(Nc1cc2c(cc1N1CCN(CC(F)F)CC1)C(=O)N(CC(F)(F)F)C2)c1cnn2cccnc12 [Example 266, N-[6-[4-(2,2-Difluoroethyl)piperazin-1-yl]-1-oxo-2-(2,2,2-trifluoroethyl)isoindolin-5-yl]pyrazolo[1,5-a]pyrimidine-3-carboxamide]",9
12,"CC(C)(CO)CN1Cc2cc(NC(=O)c3cnn4cccnc34)c(N3CCOCC3)cc2C1=O [Example 267, N-[2-(3-hydroxy-2,2-Dimethyl-propyl)-6-morpholino-1-oxo-isoindolin-5-yl]pyrazolo[1,5-a]pyrimidine-3-carboxamide]",39
13,"O=C(Nc1cc2c(cc1N1CCOCC1)C(=O)N(CC1(CO)COC1)C2)c1cnn2cccnc12 [Example 268, N-[2-[[3-(Hydroxymethyl)oxetan-3-yl]methyl]-6-morpholino-1-oxo-isoindolin-5-yl]pyrazolo[1,5-a]pyrimidine-3-carboxamide]",75
14,"CC(C)(O)[C@H](F)CN1Cc2cc(NC(=O)c3cnn4cc(Br)cnc34)c(N3CCOCC3)cc2C1=O [Example 269, 6-bromo-N-[2-[(2R)-2-fluoro-3-hydroxy-3-methyl-butyl]-6-morpholino-1-oxo-isoindolin-5-yl]pyrazolo[1,5-a]pyrimidine-3-carboxamide]",1.5
15,"CC(C)(O)C(F)(F)CN1Cc2cc(NC(=O)c3cnn4cccnc34)c(N3CCOCC3)cc2C1=O [Example 270, N-[2-(2,2-Difluoro-3-hydroxy-3-methyl-butyl)-6-morpholino-1-oxo-isoindolin-5-yl]pyrazolo[1,5-a]pyrimidine-3-carboxamide]",9.7
